# Molecular target: mTOR/GbL/Raptor (mTORC1) (Homo sapiens, UniProt P42345)
# Test: mTOR/GbL/Raptor (mTORC1) ELISA assay
# Type: biochemical
# Details: phosphorylation of 4E-BP1; 0.2 nM mTORC1, 10 μM ATP, 50 nM NHis-tagged 4E-BP1
# Method: mTOR/GbL/Raptor (mTORC1) ELISA Assay
# The measurement of mTORC1 enzyme activity was performed in an ELISA assay format following the phosphorylation of 4E-BP1 protein. All experiments were performed in the 384-well format. Generally, 0.5 μL DMSO containing varying concentrations of the test compound was mixed with 15 μL enzyme solution. Kinase reactions were initiated with the addition of 15 μL of substrates-containing solution. The assay conditions were as follows; 0.2 nM mTORC1, 10 μM ATP and 50 nM NHis-tagged 4E-BP1 in 20 mM Hepes, pH 7.2, 1 mM DTT, 50 mM NaCl, 10 mM MnCl2, 0.02 mg/mL BSA, 0.01% CHAPS, 50 mM β-glycerophosphate. Following an incubation of 120 minutes at ambient temperature, 20 μL of the reaction volume was transferred to a Ni-Chelate-coated 384-well plate. The binding step of the 4E-BP1 protein proceeded for 60 minutes, followed by washing 4 times each with 50 μL of Tris-buffered saline solution (TBS). Anti-phospho-4E-BP1 rabbit-IgG (20 μL, 1:5000) in 5% BSA-TBST (0.2% Tween-20 in TBS) was added and further incubated for 60 minutes. Incubation with a secondary HRP-tagged anti-IgG was similarly performed after washing off the primary antibody (4 washes of 50 μL). Following the final wash step with TBST, 20 μL of SuperSignal ELISA Femto (Pierce Biotechnology) was added and the luminescence measured using an EnVision plate reader.
row,IC50 [nM],Compound
1,500 to 2500,"COCCc1c(C)nc(CN(C)C)nc1N1CCOc2ccc(-c3ccc4nc(C)[nH]c4c3)cc2C1 [Compound 1, N,N-dimethyl-1-{4-methyl-6-[7-(2-methyl-1H-benzimidazol-6-yl)-2,3-dihydro-1,4-benzoxazepin-4(5H)-yl]-5-[2-(methyloxy)ethyl]pyrimidin-2-yl}methanamine]"
2,500 to 2500,"Cc1nc2ccc(-c3ccc4c(c3)CN(c3nc(CN(C)C)nc(C)c3C)CCO4)cc2[nH]1 [Compound 2, I-{4,5-dimethyl-6-[7-(2-methyl-1H-benzimidazol-6-yl)-2,3-dihydro-1,4-benzoxazepin-4(5H)-yl]pyrimidin-2-yl}-N,N-dimethylmethanamine]"
3,100 to 500,"CCN(CC)Cc1nc(C)c(C(C)C)c(N2CCOc3ccc(-c4ccc5nc(C)[nH]c5c4)cc3C2)n1 [Compound 3, N-ethyl-N-({4-methyl-6-[7-(2-methyl-1H-benzimidazol-5-yl)-2,3-dihydro-1,4-benzoxazepin-4(5H)-yl]-5-(1-methylethyl)pyrimidin-2-yl}methyl)ethanamine]"
4,≤ 100,"CC(=O)OCc1nc(C)c(C(C)C)c(N2CCOc3ccc(-c4ccc5nc(C)[nH]c5c4)cc3C2)n1 [Compound 4, {4-methyl-6-[7-(2-methyl-1H-benzimidazol-5-yl)-2,3-dihydro-1,4-benzoxazepin-4(5H)-yl]-5-(1-methylethyl)pyrimidin-2-yl}methyl acetate]"
5,≤ 100,"Cc1nc2ccc(-c3ccc4c(c3)CN(c3nc(CO)nc(C)c3C(C)C)CCO4)cc2[nH]1 [Compound 5, {4-methyl-6-[7-(2-methyl-1H-benzimidazol-5-yl)-2,3-dihydro-1,4-benzoxazepin-4(5H)-yl]-5-(1-methylethyl)pyrimidin-2-yl}methanol]"
6,500 to 2500,"COC(=O)Cc1c(C)nc(CN(C)C)nc1N1CCOc2ccc(-c3ccc4nc(C)[nH]c4c3)cc2C1 [Compound 6, methyl {2-[(dimethylamino)methyl]-4-methyl-6-[7-(2-methyl-1H-benzimidazol-5-yl)-2,3-dihydro-1,4-benzoxazepin-4(5H)-yl]pyrimidin-5-yl}acetate]"
7,100 to 500,"COCCOc1cc(-c2ccc3c(c2)CN(c2nc(CN(C)C)nc4c2CC(C)(C)CC4)CCO3)ccc1OC [Compound 7, 1-(6,6-dimethyl-4-{7-[4-(methyloxy)-3-{[2-(methyloxy)ethyl]oxy}phenyl]-2,3-dihydro-1,4-benzoxazepin-4(5H)-yl}-5,6,7,8-tetrahydroquinazolin-2-yl)-N,N-dimethylmethanamine]"
8,100 to 500,"COc1ccc(-c2ccc3c(c2)CN(c2nc(CN(C)C)nc4c2CC(C)(C)CC4)CCO3)cc1OC(F)F [Compound 8, 1-{4-[7-{3-[(difluoromethyl)oxy]-4-(methyloxy)phenyl}-2,3-dihydro-1,4-benzoxazepin-4(5H)-yl]-6,6-dimethyl-5,6,7,8-tetrahydroquinazolin-2-yl}-N,N-dimethylmethanamine]"
9,500 to 2500,"COc1ccc(-c2ccc3c(c2)CN(c2nc(CN(C)C)nc4c2CC(C)(C)CC4)CCO3)cc1S(C)(=O)=O [Compound 9, 1-(6,6-dimethyl-4-{7-[4-(methyloxy)-3-(methylsulfonyl)phenyl]-2,3-dihydro-1,4-benzoxazepin-4(5H)-yl}-5,6,7,8-tetrahydroquinazolin-2-yl)-N,N-dimethylmethanamine]"
10,100 to 500,COc1ccc(-c2ccc3c(c2)CN(c2nc(CN(C)C)nc(C)c2C(C)C)CCO3)cc1NS(C)(=O)=O [Compound 10]
11,≤ 100,"Cc1nc2cc(-c3ccc4c(c3)CN(c3nc(NCCN(C)C)nc(C)c3Cc3ccc(F)cc3)CCO4)ccc2[nH]1 [Compound 11, N′-{5-[(4-fluorophenyl)methyl]-4-methyl-6-[7-(2-methyl-1H-benzimidazol-5-yl)-2,3-dihydro-1,4-benzoxazepin-4(5H)-yl]pyrimidin-2-yl}-N,N-dimethylethane-1,2-diamine]"
12,≤ 100,"CCNc1nc(C)c(Cc2ccc(F)cc2)c(N2CCOc3ccc(-c4ccc5[nH]c(C)nc5c4)cc3C2)n1 [Compound 12, N-ethyl-5-[(4-fluorophenyl)methyl]-4-methyl-6-[7-(2-methyl-1H-benzimidazol-5-yl)-2,3-dihydro-1,4-benzoxazepin-4(5H)-yl]pyrimidin-2-amine]"
13,≤ 100,"Cc1nc2cc(-c3ccc4c(c3)CN(c3nc(NCCCN(C)C)nc(C)c3Cc3ccc(F)cc3)CCO4)ccc2[nH]1 [Compound 13, N′-{5-[(4-fluorophenyl)methyl]-4-methyl-6-[7-(2-methyl-1H-benzimidazol-5-yl)-2,3-dihydro-1,4-benzoxazepin-4(5H)-yl]pyrimidin-2-yl}-N,N-dimethylpropane-1,3-diamine]"
14,≤ 100,"Cc1nc2cc(-c3ccc4c(c3)CN(c3nc(NC5CNC5)nc(C)c3Cc3ccc(F)cc3)CCO4)ccc2[nH]1 [Compound 14, N-azetidin-3-yl-5-[(4-fluorophenyl)methyl]-4-methyl-6-[7-(2-methyl-1H-benzimidazol-5-yl)-2,3-dihydro-1,4-benzoxazepin-4(5H)-yl]pyrimidin-2-amine]"
15,≤ 100,"Cc1nc2cc(-c3ccc4c(c3)CN(c3nc(NC5CNC5)nc(C)c3C(C)C)CCO4)ccc2[nH]1 [Compound 15, N-azetidin-3-yl-4-methyl-6-[7-(2-methyl-1H-benzimidazol-5-yl)-2,3-dihydro-1,4-benzoxazepin-4(5H)-yl]-5-(1-methylethyl)pyrimidin-2-amine]"
16,≤ 100,"COc1ccc(-c2ccc3c(c2)CN(c2nc(N)nc(C)c2C(C)C)CCO3)cc1NS(C)(=O)=O [Compound 16, N-[5-{4-[2-amino-6-methyl-5-(1-methylethyl)pyrimidin-4-yl]-2,3,4,5-tetrahydro-1,4-benzoxazepin-7-yl}-2-(methyloxy)phenyl]methanesulfonamide]"
17,≤ 100,"COC(=O)Nc1nc2cc(-c3ccc4c(c3)CN(c3nc(N)nc(C)c3C(C)C)CCO4)ccc2[nH]1 [Compound 17, methyl (5-{4-[2-amino-6-methyl-5-(1-methylethyl)pyrimidin-4-yl]-2,3,4,5-tetrahydro-1,4-benzoxazepin-7-yl}-1H-benzimidazol-2-yl)carbamate]"
18,100 to 500,"COc1ccc(-c2ccc3c(c2)CN(c2nc(CN(C)C)nc4c2CC(C)(C)CC4)CCO3)cc1C(C)=O [Compound 18, 1-[5-(4-{2-[(dimethylamino)methyl]-6,6-dimethyl-5,6,7,8-tetrahydroquinazolin-4-yl}-2,3,4,5-tetrahydro-1,4-benzoxazepin-7-yl)-2-(methyloxy)phenyl]ethanone]"
19,100 to 500,"Cc1nc2cc(-c3ccc4c(c3)CN(c3nc(CN5CCCC5)nc(C)c3C(C)C)CCO4)ccc2[nH]1 [Compound 20, 7-(2-methyl-1H-benzimidazol-5-yl)-4-[6-methyl-5-(1-methylethyl)-2-(pyrrolidin-1-ylmethyl)pyrimidin-4-yl]-2,3,4,5-tetrahydro-1,4-benzoxazepine]"
20,100 to 500,"Cc1nc2cc(-c3ccc4c(c3)CN(c3nc(CN(C)C)nc(C)c3-c3ccccc3)CCO4)ccc2[nH]1 [Compound 21, N,N-dimethyl-1-{4-methyl-6-[7-(2-methyl-1H-benzimidazol-5-yl)-2,3-dihydro-1,4-benzoxazepin-4(5H)-yl]-5-phenylpyrimidin-2-yl}methanamine]"
21,500 to 2500,"Cc1nc2cc(-c3ccc4c(c3)CN(c3nc(CN(C)C)nc(C)c3CCCF)CCO4)ccc2[nH]1 [Compound 22, 1-{5-(3-fluoropropyl)-4-methyl-6-[7-(2-methyl-1H-benzimidazol-5-yl)-2,3-dihydro-1,4-benzoxazepin-4(5H)-yl]pyrimidin-2-yl}-N,N-dimethylmethanamine]"
22,100 to 500,"Cc1nc2cc(-c3ccc4c(c3)CN(c3nc(CN(C)C)nc(C)c3CC(C)C)CCO4)ccc2[nH]1 [Compound 23, N,N-dimethyl-1-{4-methyl-6-[7-(2-methyl-1H-benzimidazol-5-yl)-2,3-dihydro-1,4-benzoxazepin-4(5H)-yl]-5-(2-methylpropyl)pyrimidin-2-yl}methanamine]"
23,≤ 100,"Cc1nc2cc(-c3ccc4c(c3)CN(c3nc(C(C)N)nc5c3CC(C)(C)CC5)CCO4)ccc2[nH]1 (stereo not shown) [Compound 24, 1-{6,6-dimethyl-4-[7-(2-methyl-1H-benzimidazol-5-yl)-2,3-dihydro-1,4-benzoxazepin-4(5H)-yl]-5,6,7,8-tetrahydroquinazolin-2-yl}ethanamine]"
24,≤ 100,"Cc1nc2cc(-c3ccc4c(c3)CN(c3nc(CF)nc5c3CC(C)(C)CC5)CCO4)ccc2[nH]1 [Compound 25, 4-[2-(fluoromethyl)-6,6-dimethyl-5,6,7,8-tetrahydroquinazolin-4-yl]-7-(2-methyl-1H-benzimidazol-5-yl)-2,3,4,5-tetrahydro-1,4-benzoxazepine]"
25,≤ 100,"CC(=O)NCc1nc2c(c(N3CCOc4ccc(-c5ccc6[nH]c(C)nc6c5)cc4C3)n1)CC(C)(C)CC2 [Compound 26, N-({6,6-dimethyl-4-[7-(2-methyl-1H-benzimidazol-5-yl)-2,3-dihydro-1,4-benzoxazepin-4(5H)-yl]-5,6,7,8-tetrahydroquinazolin-2-yl}methyl)acetamide]"
